Test results as given in patent US20110081674A1, “CONTINUOUS-FLOW DEFORMABILITY-BASED CELL SEPARATION” (priority 2009, published 2011).

System: red blood cells (RBCs)
Assay: Deformability and mobility of glutaraldehyde-treated red blood cells at slits of the microfluidic device
Assay type: cell-based
Description: FIG. 4 illustrates embodiments of: A. red blood cells (RBCs) aligned at the entrance of a 1 μm slit under a pressure difference of 40 kPa. […] Because the surface-area to volume ratio of RBCs is constrained, they are unable to pass through slits less than a certain gap width apart. B. RBCs treated with 0.1% Glutaraldehyde (GA) maintain their biconcave structure at the entrance of 2 μm slits under a pressure difference of 40 kPa. Glutaraldehyde cross-links proteins in the membrane and in the cytosol of RBCs, making them stiffer. […] C. Mobility vs. GA concentration. […] The slit gap is the vertical gap that defines the spacing between the two substrates at the trenches area. These are the shallow regions of a unit of the sorter.
With reference to FIG. 4A, a solution of PBS 1× and 0.2% w/v Pluronic F108 (a surfactant) and Bovine Serum Albumin 1% w/v (another surfactant) was prepared. The device was filled with this solution by applying pressure to one of the reservoirs. 1 μL of whole blood was mixed with 100 μL of this solution. The mixture was injected into the entrance reservoir of the device shown by using a syringe. The pressure difference between the two reservoirs was 40 kPa and was generated by using a pressure regulator. The cell concentration was approximately 0.5% hematocrit. Mobility was measured by tracking individual cells over a distance of 100 μm.

O=CCCCC=O [Glutaraldehyde]
Ability of treated RBCs to deform and pass through slits (RBCs treated with 0.1% Glutaraldehyde, 2 μm slits, pressure difference 40 kPa): unable to pass through 2 μm slits
Mobility vs. GA concentration (higher GA concentration, given ambient fluid velocity): decreased mobility
